Patent US20220072008A1 (CEDARS-SINAI MEDICAL CENTER, priority 2020, published 2022)
Several values for one entry are separate records, joined by “and”; a condition that tells them apart may be missing. Equal values may be shown once.

What was measured:
[1] = system: hospitalized men with COVID-19; assay: Randomized controlled pilot trial: clinical status and clinical outcomes, progesterone + SOC vs SOC alone; assay type: in vivo, human
[2] = Randomized controlled pilot trial: serious adverse events and safety; assay type: in vivo, human
Method: Death, serious adverse events (SAE's), and grade 3 and 4 adverse events (AEs) are will be assessed and reported throughout the study.
Study patients were assessed daily for 15 days or until discharge, whichever came first. Discharged patients participated in phone or video study visits on days 7 and 15. Clinical assessment performed daily during hospitalization included evaluation of clinical status with daily vital signs, oxygen supplementation type and amount, need for mechanical ventilation, adverse events, and concomitant medications. WBCs, hemoglobin, platelets, electrolytes, BUN, creatinine, liver transaminases, and inflammatory markers, if obtained as part of SOC, were monitored on days 1 through 5, 7, and 15 while patients were hospitalized. […] Self-reported race and ethnicity, obtained from medical records, were collected as demographic information to assess possible differences in disease severity or treatment response. Serious adverse events and grade 3 and 4 adverse events as described in the Division of AIDS Table for Grading the Severity of Adult and Pediatric Adverse Events were recorded.

[3] = 100 mg sc twice daily 5 days + SOC, n = 18
[4] = 100 mg sc twice daily 5 days + SOC, preliminary analysis N = 17
[5] = 7-point ordinal scale, preliminary analysis N = 17, P 0.003 vs SOC
[6] = 7-point ordinal scale, preliminary analysis N = 17, P <0.001 vs SOC
[7] = seven-point ordinal scale, from baseline, n = 18
[8] = Control Group After Progesterone n = 9, SAEs after receiving progesterone (crossover)

CC(=O)[C@H]1CC[C@H]2[C@@H]3CCC4=CC(=O)CC[C@]4(C)[C@H]3CC[C@]12C [Progesterone, progesterone]
Status on day 7: 1: Death [1, 3]: 1 (5.6) No. (%) | Status on day 7: 2: Hospitalized; on invasive mechanical ventilation or ECMO [1, 3]: 0 (0.0) No. (%) | Status on day 7: 3: Hospitalized; on high-flow nasal cannula [1, 3]: 2 (11.1) No. (%) | Status on day 7: 4: Hospitalized; requiring supplemental oxygen (not HFNC) [1, 3]: 2 (11.1) No. (%) | Status on day 7: 5: Hospitalized; not requiring supplemental oxygen [1, 3]: 4 (22.2) No. (%) | Status on day 7: 6: Not hospitalized; limitations on activities [1, 3]: 7 (38.9) No. (%) | Status on day 7: 7: Not hospitalized; no limitations on activities [1, 3]: 2 (11.1) No. (%) | Status on day 15: 1: Death [1, 3]: 1 (5.6) No. (%) | Status on day 15: 2: Hospitalized; on invasive mechanical ventilation or ECMO [1, 3]: 0 (0.0) No. (%) | Status on day 15: 3: Hospitalized; on high-flow nasal cannula [1, 3]: 0 (0.0) No. (%) | Status on day 15: 4: Hospitalized; requiring supplemental oxygen (not HFNC) [1, 3]: 1 (5.6) No. (%) | Status on day 15: 5: Hospitalized; not requiring supplemental oxygen [1, 3]: 1 (5.6) No. (%) | Status on day 15: 6: Not hospitalized; limitations on activities [1, 3]: 8 (44.4) No. (%) | Status on day 15: 7: Not hospitalized; no limitations on activities [1, 3]: 7 (38.9) No. (%) | Status at Day 7: 2-Hospitalized; on invasive mechanical ventilation or ECMO [1, 4]: 0 (0.0) n (%) | Status at Day 7: 3-Hospitalized; on high flow nasal cannula [1, 4]: 2 (11.8) n (%) | Status at Day 7: 4-Hospitalized; requiring supplemental oxygen (not HFNC) [1, 4]: 2 (11.8) n (%) | Status at Day 7: 5-Hospitalized; not requiring supplemental oxygen [1, 4]: 4 (23.5) n (%) | Status at Day 7: 6-Not hospitalized; limitations on activities [1, 4]: 7 (41.2) n (%) | Status at Day 7: 7-Not hospitalized; no limitations on activities [1, 4]: 2 (11.8) n (%) | Worst Status Prior to Day 7: 2-Hospitalized; on invasive mechanical ventilation or ECMO [1, 4]: 0 (0.0) n (%) | Worst Status Prior to Day 7: 3-Hospitalized; on high flow nasal cannula [1, 4]: 5 (29.4) n (%) | Worst Status Prior to Day 7: 4-Hospitalized; requiring supplemental oxygen (not HFNC) [1, 4]: 11 (64.7) n (%) | Worst Status Prior to Day 7: 5-Hospitalized; not requiring supplemental oxygen [1, 4]: 1 (5.9) n (%) | Change from Baseline at Day 7: 0 [1, 5]: 3 (17.6) n (%) | Change from Baseline at Day 7: +1 [1, 5]: 3 (17.6) n (%) | Change from Baseline at Day 7: +2 [1, 5]: 7 (41.2) n (%) | Change from Baseline at Day 7: +3 [1, 5]: 2 (11.8) n (%) | Change from Baseline at Day 7: −1 [1, 5]: 2 (11.8) n (%) | Change from Baseline at Day 7: −2 [1, 5]: 0 (0.0) n (%) | Change from Worst at Day 7: 0 [1, 6]: 3 (17.6) n (%) | Change from Worst at Day 7: +1 [1, 6]: 4 (23.5) n (%) | Change from Worst at Day 7: +3 [1, 6]: 2 (11.8) n (%) | median hospital length of stay (LOS) ([1]; Progesterone Group n = 18): 7.0 days | median number of days on supplemental oxygen ([1]; Progesterone Group n = 18): 4.5 (IQR, 2.0-6.0) days and 4.5 days | patients remaining hospitalized at study completion ([1]; day 15, progesterone group): one | cumulative probability of clinical improvement (increase of at least one point on the seven-point scale or live discharge) ([1]; first seven study days, Kaplan-Meier estimation, one noncompliant patient excluded, log-rank P=0.014 vs control): 0.76 (95% CI, 0.55-0.93) | fewer days hospitalized than control ([1]; median 7.0 vs 9.5 days): 2.5 days | patients remaining hospitalized by day 7 ([1]; nine of 18 patients): 50% | median improvement more than control group, worst clinical status before day 7 vs status on day 7 ([1]; post hoc sensitivity analysis, 95% CI, 1.0-2.0, P=0.006): two | improvement in clinical status at Day 7 compared to SOC ([1]; preliminary analysis, Wilcoxon rank-sum p=0.003): greater degree of improvement in clinical status at Day 7 | improvement from worst status prior to Day 7 compared to SOC ([1]; preliminary sensitivity analysis, p<0.001): greater improvement over the SOC group | mechanical ventilation initiated ([1]; progesterone group, vs four of 22 control patients): none | overall change in score from baseline to day 7, median better than control group ([1]; sensitivity analysis, last assessment before crossing over imputed as day 7 score, 95% CI, 0.0-2.0, P=0.010): 1.5 points | Change in status on day 7: 0 [1, 7]: 3 (16.7) No. (%) | Change in status on day 7: +1 [1, 7]: 3 (16.7) No. (%) | Change in status on day 7: +2 [1, 7]: 7 (38.9) No. (%) | Change in status on day 7: +3 [1, 7]: 2 (11.1) No. (%) | Change in status on day 7: −1 [1, 7]: 2 (11.1) No. (%) | Change in status on day 7: −2 [1, 7]: 0 (0.0) No. (%) | Change in status on day 7: −3 [1, 7]: 1 (5.6) No. (%) | Change in status on day 15: 0 [1, 7]: 1 (5.6) No. (%) | Change in status on day 15: +1 [1, 7]: 4 (22.2) No. (%) | Change in status on day 15: +2 [1, 7]: 4 (22.2) No. (%) | Change in status on day 15: +3 [1, 7]: 7 (38.9) No. (%) | Change in status on day 15: +4 [1, 7]: 1 (5.6) No. (%) | Change in status on day 15: −1 [1, 7]: 0 (0.0) No. (%) | Change in status on day 15: −2 [1, 7]: 0 (0.0) No. (%) | Change in status on day 15: −3 [1, 7]: 1 (5.6) No. (%) | Change in status on day 7, median (IQR) ([1]; seven-point ordinal scale, from baseline, n = 18, P .024 vs control): 1.5 (0.0 to 2.0) | Change in status on day 15, median (IQR) ([1]; seven-point ordinal scale, from baseline, n = 18, P .150 vs control): 2.0 (1.0 to 3.0) | overall improvement in median clinical status score from baseline to day 7 compared with control ([1]; seven-point ordinal scale, 95% CI, 0.0-2.0, P=0.024): 1.5 points | serious adverse events attributable to progesterone ([2]; 100 mg sc twice daily): no serious adverse events attributable to progesterone | Any SAE or death [2, 8]: 3 (33.3) No. (%) | SAE: Cardiac arrest [2, 8]: 0 (0.0) No. (%) | SAE: Creatinine increased [2, 8]: 0 (0.0) No. (%) | SAE: DVT [2, 8]: 1 (11.1) No. (%) | SAE: Death [2, 8]: 0 (0.0) No. (%) | SAE: Hypoperfusion [2, 8]: 2 (22.2) No. (%) | SAE: Hypoxia [2, 8]: 3 (33.3) No. (%) | SAE: Lymphocyte count decreased [2, 8]: 0 (0.0) No. (%) | SAE: Pulmonary embolism [2, 8]: 0 (0.0) No. (%) | Any SAE or death ([2]; Progesterone Group n = 18): 2 (11.1) No. (%) | SAE: Cardiac arrest ([2]; Progesterone Group n = 18): 0 (0.0) No. (%) | SAE: Creatinine increased ([2]; Progesterone Group n = 18): 0 (0.0) No. (%) | SAE: DVT ([2]; Progesterone Group n = 18): 1 (5.6) No. (%) | SAE: Death ([2]; Progesterone Group n = 18): 1 (5.6) No. (%) | SAE: Hypoperfusion ([2]; Progesterone Group n = 18): 0 (0.0) No. (%) | SAE: Hypoxia ([2]; Progesterone Group n = 18): 0 (0.0) No. (%) | SAE: Lymphocyte count decreased ([2]; Progesterone Group n = 18): 0 (0.0) No. (%) | SAE: Pulmonary embolism ([2]; Progesterone Group n = 18): 1 (5.6) No. (%) | risk of thromboembolism ([2]; all patients on prophylactic-dose anticoagulation): not associated with any significant increase in the risk of thromboembolism | tolerability of high serum levels ([2]; levels as high as 288 ng/mL): tolerated well and not associated with any adverse events | deaths during the total 15-day surveillance period ([2]; progesterone group, not attributable to progesterone): one | patients with thromboembolic events ([2]; progesterone group, two thromboembolic events in one patient): 5.6%
